Experiments:
[1] = tested on: CC49-TCO pretargeted LS174T colon carcinoma xenografts; experiment: Pretargeted blocking assay with [111In]Q (Example 140); format: in vivo, BALB/c mice; conditions: as listed in Table 6, value of the unlabeled Tz
Method: All animal studies were approved by the Danish Animal Welfare Council, ministry of Justice. Five weeks old female nude BALB/c mice (Charles River, Sulzfeld, Germany) were allowed to acclimatize for one week with access to water and chow ad libitum. Human colon cancer cell line (LS174T; obtained from ATCC) was cultured in minimum essential medium (MEM) supplemented with 10% fetal bovine serum, 1% L-Glutamine, 1% Sodium pyruvate, 1% non-essential amino acids, and 1% penicillin-streptomycin at 37° C. and 5% CO2. Cells were harvested by trypsination at a confluence of 70-90% and subcutaneous tumors were established in the left flank of the 6 weeks old animals by inoculation of ˜5×10^6 LS174T cells resuspended in sterile PBS (100 μL) and allowed to grow for 7-10 days. Tumors were measured using a caliper and the volume calculated using the formula volume=½(length×width^2).
The assay was inspired by receptor blocking experiments and based on the pretargeted imaging approach reported by Rossin et al. An ^111In-labeled Tz [^111In]Q was used in pair with TCO-modified CC49, a non-internalizing mAb that targets the tumor-associated glycoprotein 72 (TAG72), as a benchmark model for the in vivo ligation.
The TCO-modification of CC49 was carried out according to Rossin et al. To study the in vivo ligation performance of Tz-derivatives 1a-45a, BALB/c mice bearing LS174T colon carcinoma xenografts were injected intravenously (i.v.) with CC49-TCO 72 h prior to i.v. injection of the unlabeled Tz, followed by administration of [^111In]Q 1 h later. The animals were euthanized after 22 h and an ex vivo biodistribution was carried out to quantify the tumor uptake of [111 In]Q (FIG. 15). The efficiency of the in vivo ligation of the unlabeled Tz can thus be correlated to a reduced uptake of [111 In]Q (FIG. 15). As a control, blocking was performed using the non-radioactive precursor of [^111In]Q, which blocked ≥99% of the [^111In]Q tumor uptake. A group of CC49-TCO pretreated mice were injected exclusively with [^111In]Q (without blocking) and the determined uptake was used as reference value (100%) to normalize the observed changes in tumor uptake in blocking experiments.
All of these probes include H-phenyl-, pyrimidyl-phenyl-, or bis(pyridyl)-Tz-scaffolds with second-order rate constants for the reaction with TCO of >70 M 1 s 1 (1,4-dioxane, 25° C.) or of >39,000 M 1 s 1 (DPBS, 37° C.) (cf. Table 5). Next, potential correlations between the blocking effect, the c log D7.4 and the TPSA, as well as IEDDA reactivity were investigated. […] However, a distinct relationship between c log D7.4 values and the blocking effect was evidently observed when comparing Tz-derivatives with similar IEDDA reactivity (FIG. 16C, 16D). For all Tz-scaffolds a Pearson's correlation coefficient >0.78 was found. […] The blocking effect of non-radiolabeled Tz was determined as the change in tumor uptake of [111 In]Q 22 h p.i. Each Tz was administered 1 h prior to [111 In]Q and the uptake normalized to a group of animals were no blocking was performed (control). Data represent mean from n=3 mice/group. Correlation of blocking effect and c log D7.4 for Tz-derivatives with similar IEDDA reactivity (as shown in FIGS. 16C and D) where data was fitted to exponential growth equation Y=Y0 ekx (dotted line). The statistical analysis of the correlation between tumor uptake and c log D7.4 for the different groups of Tz-derivatives (shown in Table 7) was obtained by Pearson's correlation coefficient (r) which describes the goodness of fit between the blocking effect and c log D7.4. Notes: a Reaction of representative Tz with unsubstituted TCO; “Reaction of representative Tz with TCO-PEG4;” Measured for Tz-scaffold A only; n.d.=not determined.

[2] = In vivo stability of 18F-labeled Tz-derivatives, plasma radio-TLC; conditions: naïve mice, n=4
Source text: In order to verify that the results from the blocking study can be used to predict the outcome for in vivo PET imaging, 18 Tz-derivatives from the first library were selected. The selection was based on criteria such as, the possibility for ^18F-labeling, structural diversity, lipophilicities and distinct IEDDA reactivities. For this purpose, we decided to use an indirect radiolabeling approach, enabling the combination of different building blocks to rapidly access a series of ^18F-labeled Tz-derivatives. The Cu-catalyzed azide-alkyne [3+2] cycloaddition (CuAAC) appeared to be suitable in this respect, as it allows for fast and efficient radiolabeling under mild reaction conditions. Six precursor Tz-alkynes (I-VI) were prepared and reacted with three ^18F-labeled azides ([^18F]Az1-Az3) to obtain 18 different [^18F]Tz-probes (FIG. 17). Notes to Table 6 showing the results obtained: ^aRCYs were decay-corrected to the starting amount of radioactivity for the respective azide or *RCY was determined starting from ^18F—. ^bMolar activities (Am) differ due to the use of different cyclotrons. ^cRCP was determined by radio-HPLC. ^dIn vivo stability of [^18F]Tz was assessed by determining the fraction (%) of radioactivity corresponding to intact compound after 30 min (n=4) from radio-TLC analysis. n.d.=not determined.
Next, we investigated whether there is a relationship between the in vivo stability of Tz-derivatives and their blocking ability. Fifteen ^18F-labeled tetrazines were studied in naïve mice. Blood was collected after 30 min, and plasma samples were analyzed by radio-TLC for stability assessment (Table 6). […] Consequently, six [^18F]Tz ([^18F]1a, [^18F]3a, [^18F]19a, [^18F]26a, [^18F]44a, and [^18F]45a) were selected for further in vivo studies solely based on the IEDDA-reactivity (second-order rate constants between 72 and 230 M^−1s^−1) and lipophilicity (c log D7.4 between −1.53 and 2.10). These radiolabeled Tz-probes were used to investigate if the results from the blocking assay can be translated to pretargeted PET imaging at tracer doses.

[3] = Second order rate constants from stopped-flow measurements with TCO at 25° C. in ACN (Table 1); format: physicochemical; conditions: second order rate constants estimated from stopped-flow measurements of the alkyne-Tz building block with TCO at 25° C. in ACN
Method: In Table 1, the following letters in brackets defines the following: [a] Radiochemical conversion (RCC) and Radiochemical purity (RCP) were determined by radio-HPLC (n=3); [b] Radiochemical yield (RCY) was decay corrected to the starting amount of radioactivity received from the cyclotron and the isolated product without formulation step (n=3); [c] Second order rate constants estimated from stopped-flow measurements of the alkyne-Tz building block with TCO at 25° C. in CAN; [d] No product formed or could not be isolated.
Reaction kinetics of the Tz-derivatives were determined by pseudo-first order measurements in dioxane at 25.0±0.1° C. or PBS at 27.0±0.1° ° C. in a SX20 stopped flow photometer (Applied Photophysics). The pseudo first order rate constant was determined by linearization of the decay curve followed by linear fitting. The second order rate constant was calculated from the pseudo-first order rate constant.

[4] = tested on: CC49-TCO pretargeted LS174T tumor xenografts; experiment: Pretargeted PET imaging with six 18F-labeled Tz-derivatives (Example 140); format: in vivo, BALB/c nude mice; conditions: PET 1 h p.i., n=3-4 per group
Method: Mice (n=3-4 per group) were injected i.v. with either CC49-TCO or 0.9% saline (control experiments). After 72 h, ^18F-labeled Tz (5-10 MBq) were administered and the mice were PET/CT-scanned 1 h p.i. A 3D region of interest (ROI) was created on the entire tumor volume, as well as heart and muscle tissue, and the uptake was quantified as percentage of the injected dose per gram (mean % ID/g), tumor-to-blood (T/B) and tumor-to-muscle (T/M) ratios (FIG. 18A-D). FIG. 18 (A) is a schematic illustration of the pretargeting experiment and the research question: Is there a correlation between the blocking effect and the PET imaging contras. (B) Image-derived mean uptake values are presented as percentage of the injected dose per gram (% ID/g) in tumor. (C) Tumor-to-muscle (T/M) ratios (n=4 mice, except for [^18F]3, n=3). Data is represented as mean±S.D. (*p<0.05 and *** p<0.001). For all groups n=4 mice (except [^18F]3a where n=3) (D) Correlation between the blocking effect of the unlabeled Tz-derivatives 1a, 3a, 19a, 26a, 44a, and 45a and the T/M-ratios for the corresponding ^18F-labeled compounds observed by in vivo pretargeted PET imaging. A strong correlation was found (linear regression: R2=0.78, p=0.019, n=6). Data is represented as mean±S.D. The asterisk indicates significant difference (* p<0.05 and *** p<0.001) when compared to control. (E) Representative images of PET scans 1 h p.i. of the radiolabeled Tz ([^18F]1a, [^18F]3a, [^18F]19a, [^18F]26a, [^18F]44a and [^18F]45a) in pretargeted PET imaging studies (T indicates the position of the tumor).
This difference was also observed for the three ^18F-labeled Tz-derivatives showing specific tumor accumulation ([^18F]3a, [^18F]19a and [^18F]45a), but not for the non-accumulating probes [^18F]1a and [^18F]26a (FIG. 18B). Binding to residual mAb in the blood pool is a frequently reported challenge in pretargeted imaging approaches, and has been addressed by the development of clearing agents.

O=C(Nc1ccc(-c2nnc(-c3ccccn3)nn2)nc1)c1ccc(-c2cn(CC[18F])nn2)cc1 [[^18F]25a]
Blocking effect (%) (of unlabeled Tz) [1]: 16%

Cc1nnc(-c2ccc(OCc3cn([C@@H]4O[C@H](C[18F])[C@@H](O)[C@H](O)[C@H]4O)nn3)cc2)nn1 [[^18F]7a]
In vivo stability (% intact [^18F]Tz after 30 min) [2]: 60%
Blocking effect (%) (of unlabeled Tz) [1]: 3%

[18F]c1cccc(-c2nncnn2)c1 [[^18F]-9]
k2 [3]: 222 M⁻¹ s⁻¹

[18F]CCn1cc(-c2ccc(-c3nncnn3)cc2)nn1 [[^18F]17a]
In vivo stability (% intact [^18F]Tz after 30 min) [2]: 32%
Blocking effect (%) (of unlabeled Tz) [1]: 0%

[18F]c1ccc(-c2nnc(-c3ccccn3)nn2)nc1 [[^18F]U]
k2 [3]: 206 M⁻¹ s⁻¹

O=C(Nc1ccc(-c2nnc(-c3ccccn3)nn2)nc1)c1ccc(-c2cn([C@@H]3O[C@H](C[18F])[C@@H](O)[C@H](O)[C@H]3O)nn2)cc1 [[^18F]27a]
Blocking effect (%) (of unlabeled Tz) [1]: 51%

[18F]c1ccc(-c2nnc(-c3ccccn3)nn2)cc1 [[^18F]T]
k2 [3]: 106 M⁻¹ s⁻¹

[18F]c1ccc(-c2nnc(-c3ccccc3)nn2)cc1 [[^18F]E]
k2 [3]: 18 M⁻¹ s⁻¹

[18F]CCn1cc(COc2ccc(-c3nnc(-c4ccccn4)nn3)cc2)nn1 [[^18F]12a]
In vivo stability (% intact [^18F]Tz after 30 min) [2]: 10%
Blocking effect (%) (of unlabeled Tz) [1]: 0%

Cc1nnc(-c2ccc([18F])cc2)nn1 [[^18F]Tz1]
k2 [3]: 2.25 M⁻¹ s⁻¹

Cc1nnc(-c2ccc(OCc3cn(CC[18F])nn3)cc2)nn1 [[^18F]5a]
In vivo stability (% intact [^18F]Tz after 30 min) [2]: 26%
Blocking effect (%) (of unlabeled Tz) [1]: 10%

O[C@@H]1[C@@H](O)[C@H](n2cc(COc3ccc(-c4nnc(-c5ccccn5)nn4)cc3)nn2)O[C@H](C[18F])[C@H]1O [[^18F]14a]
In vivo stability (% intact [^18F]Tz after 30 min) [2]: 43%
Blocking effect (%) (of unlabeled Tz) [1]: 24%

O=C(CCc1cn([C@@H]2O[C@H](C[18F])[C@@H](O)[C@H](O)[C@H]2O)nn1)Nc1ccc(-c2nnc(-c3ccccn3)nn2)nc1 [[^18F]45a]
Tumor accumulation in mice pretreated with CC49-TCO compared to control animals [4]: significantly increased tumor accumulation
In vivo stability (% intact [^18F]Tz after 30 min) [2]: 42%
Blocking effect (%) (of unlabeled Tz) [1]: 99%

[18F]c1cccc(-c2nnc(-c3ccccc3)nn2)c1 [[^18F]R]
k2 [3]: 30 M⁻¹ s⁻¹

O[C@@H]1[C@@H](O)[C@H](n2cc(-c3ccc(-c4nncnn4)cc3)nn2)O[C@H](C[18F])[C@H]1O [[^18F]19a]
Tumor accumulation in mice pretreated with CC49-TCO compared to control animals [4]: significantly increased tumor accumulation
In vivo stability (% intact [^18F]Tz after 30 min) [2]: 87%
Blocking effect (%) (of unlabeled Tz) [1]: 76%

[18F]CCn1cc(COc2ccc(-c3nncnn3)cc2)nn1 [[^18F]1a]
Tumor accumulation in mice pretreated with CC49-TCO compared to control animals [4]: no significant difference in tumor uptake
In vivo stability (% intact [^18F]Tz after 30 min) [2]: 90%
Blocking effect (%) (of unlabeled Tz) [1]: 9%

O[C@@H]1[C@@H](O)[C@H](n2cc(COc3ccc(-c4nncnn4)cc3)nn2)O[C@H](C[18F])[C@H]1O [[^18F]3a]
Tumor accumulation in mice pretreated with CC49-TCO compared to control animals [4]: significantly increased tumor accumulation
In vivo stability (% intact [^18F]Tz after 30 min) [2]: 76%
Blocking effect (%) (of unlabeled Tz) [1]: 81%

[18F]c1ccc(-c2nncnn2)cc1 [[^18F]Y]
k2 [3]: 159 M⁻¹ s⁻¹

O=C(CCc1cn(CC[18F])nn1)Nc1ccc(-c2nnc(-c3ccccn3)nn2)nc1 [[^18F]43a]
In vivo stability (% intact [^18F]Tz after 30 min) [2]: 10%
Blocking effect (%) (of unlabeled Tz) [1]: 67%

Source: patent US20240287104A1, “NUCLIDE LABELLED H-TETRAZINES AND USE THEREOF FOR PET AND SPECT PRETARGETED IMAGING AND RADIONUCLIDE THERAPY” (RIGSHOSPITALET, priority 2020, published 2024)
